The target of assay [1] is hippocampal mGlu5 receptors (Rattus norvegicus (Rat), UniProt P31424). The assay can be described thus: Ex vivo mGlu5 receptor occupancy. It counts as in vivo. To be noted: Sprague Dawley rats, 1-10 mg/kg po, one hour post-dose, hippocampal CA3 sections, [3H]-M-MPEP autoradiography, read-out: estimated ED50 (receptor occupancy). As for the experimental part: Ex Vivo mGlu5 Receptor Occupancy
One hour post-dose, animals were sacrificed and whole brains removed, rinsed and blot dried. A coronal block was cut containing the hippocampus and divided along the mid-line and rapidly frozen in isopentane for sectioning and autoradiography. Coronal half-brain sections were cut 20 μm thick, approximately 4 mm posterior to the bregma, to incorporate the hippocampal CA3 region. Three adjacent sections were mounted onto slides and incubated with 2 nM [^3H]-M-MPEP (total binding) or 2 nM [^3H]-M-MPEP and 10 μM fenobam (non-specific binding, Tocris bioscience, catalogue number 2386) for 10 min at room temperature. Binding was terminated by aspiration and washing with ice-cold assay buffer (4×5 min) and sections allowed to air dry. Levels of bound radioactivity in the sections were determined using a beta imager over a 16 h period. Occupancy was determined as mean specific binding with the vehicle treated control taken as 100%.

In a further assay the target is human mGlu5 receptor (Homo sapiens (Human), UniProt P41594). The assay can be described thus: [3H]-M-MPEP radioligand binding assay. To be noted: competition with [3H]-M-MPEP, membranes of HEK293 cells transfected with human mGlu5. As for the experimental part: Biological Methods Membrane Preparation
human mGlu5 receptor, sequence (P41594 21-1212): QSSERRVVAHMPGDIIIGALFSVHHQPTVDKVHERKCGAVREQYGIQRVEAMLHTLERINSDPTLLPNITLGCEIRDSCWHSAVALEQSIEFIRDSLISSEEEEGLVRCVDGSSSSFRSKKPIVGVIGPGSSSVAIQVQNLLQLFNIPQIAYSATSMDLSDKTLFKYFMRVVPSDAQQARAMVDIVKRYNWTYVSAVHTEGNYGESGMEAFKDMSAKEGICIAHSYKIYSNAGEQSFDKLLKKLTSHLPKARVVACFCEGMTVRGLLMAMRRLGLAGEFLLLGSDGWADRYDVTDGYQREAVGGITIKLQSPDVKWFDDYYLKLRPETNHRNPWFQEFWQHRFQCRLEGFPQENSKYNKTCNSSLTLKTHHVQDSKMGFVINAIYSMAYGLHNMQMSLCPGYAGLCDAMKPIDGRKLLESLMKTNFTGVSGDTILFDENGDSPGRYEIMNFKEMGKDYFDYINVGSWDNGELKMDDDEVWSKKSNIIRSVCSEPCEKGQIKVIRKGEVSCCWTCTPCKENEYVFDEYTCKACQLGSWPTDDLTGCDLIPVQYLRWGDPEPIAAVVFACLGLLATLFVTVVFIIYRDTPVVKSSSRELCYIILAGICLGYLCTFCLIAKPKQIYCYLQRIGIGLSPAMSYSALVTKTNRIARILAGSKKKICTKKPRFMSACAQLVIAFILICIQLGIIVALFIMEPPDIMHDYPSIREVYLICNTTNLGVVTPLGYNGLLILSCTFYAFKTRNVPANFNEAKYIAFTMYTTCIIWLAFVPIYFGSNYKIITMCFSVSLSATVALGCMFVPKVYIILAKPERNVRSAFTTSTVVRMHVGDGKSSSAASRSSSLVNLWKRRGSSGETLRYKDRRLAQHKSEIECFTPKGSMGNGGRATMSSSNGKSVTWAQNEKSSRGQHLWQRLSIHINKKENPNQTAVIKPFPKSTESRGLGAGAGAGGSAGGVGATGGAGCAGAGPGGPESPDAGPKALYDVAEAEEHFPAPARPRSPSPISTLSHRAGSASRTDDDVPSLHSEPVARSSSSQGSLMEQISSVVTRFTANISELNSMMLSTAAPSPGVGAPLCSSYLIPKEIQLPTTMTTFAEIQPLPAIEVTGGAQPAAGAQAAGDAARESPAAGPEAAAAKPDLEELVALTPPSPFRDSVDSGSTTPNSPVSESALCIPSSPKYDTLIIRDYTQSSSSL
cDNA encoding the human mGlu5 receptor was transfected into HEK293 cells using the transfection reagent Genejuice (Novagen). Forty-eight hours after transfection, cells were harvested and washed twice with ice cold phosphate-buffered saline. The pellet was re-suspended in ice-cold buffer containing 20 mM Tris-HCl, pH 7.4, 1 mM EDTA and homogenised with an Ultraturax for 30 s at maximum speed. The suspension was centrifuged (800×g for 5 min at 4° C.) and supernatant collected. Supernatant was centrifuged (40,000×g for 30 min at 4° C.). The resulting pellet was re-suspended and frozen at −80° C. before use. Protein concentration was determined using the BCA protein assay method (Merck Chemicals Ltd).
[^3H]-M-MPEP Radioligand Binding Assay
After thawing, membrane homogenates were re-suspended in the binding buffer (50 mM HEPES pH 7.5, 150 mM NaCl) to a final assay concentration of 2.5 μg protein per well. […] At the end of the incubation, membranes were filtered onto a 96-well GF/B filter pre-incubated with 0.1% polyethylenimine, with a Tomtec cell harvester and washed 5 times with 0.5 mL distilled water. Non-specific binding (NSB) was measured in the presence of 0.1 mM MPEP hydrochloride (Tocris bioscience, catalogue number 1212). Radioactivity on the filter was counted (1 min) on a microbeta counter after addition of 50 μL of scintillation fluid. […] IC50 values were derived from the inhibition curve and the equilibrium dissociation constant (Ki) values were calculated using the Cheng-Prussoff equation.

In the next assay the test system is Male CD-1 mice. The experiment in a line: In vivo efficacy test - mouse marble burying. To be noted: 10 and 30 mg/kg po versus vehicle group, dosed 30 min prior to test, one-way ANOVA with Dunnett's post-hoc test. An excerpt: In Vivo Efficacy Test—Marble Burying

hippocampal mGlu5 receptors, sequence (P31424 21-1203): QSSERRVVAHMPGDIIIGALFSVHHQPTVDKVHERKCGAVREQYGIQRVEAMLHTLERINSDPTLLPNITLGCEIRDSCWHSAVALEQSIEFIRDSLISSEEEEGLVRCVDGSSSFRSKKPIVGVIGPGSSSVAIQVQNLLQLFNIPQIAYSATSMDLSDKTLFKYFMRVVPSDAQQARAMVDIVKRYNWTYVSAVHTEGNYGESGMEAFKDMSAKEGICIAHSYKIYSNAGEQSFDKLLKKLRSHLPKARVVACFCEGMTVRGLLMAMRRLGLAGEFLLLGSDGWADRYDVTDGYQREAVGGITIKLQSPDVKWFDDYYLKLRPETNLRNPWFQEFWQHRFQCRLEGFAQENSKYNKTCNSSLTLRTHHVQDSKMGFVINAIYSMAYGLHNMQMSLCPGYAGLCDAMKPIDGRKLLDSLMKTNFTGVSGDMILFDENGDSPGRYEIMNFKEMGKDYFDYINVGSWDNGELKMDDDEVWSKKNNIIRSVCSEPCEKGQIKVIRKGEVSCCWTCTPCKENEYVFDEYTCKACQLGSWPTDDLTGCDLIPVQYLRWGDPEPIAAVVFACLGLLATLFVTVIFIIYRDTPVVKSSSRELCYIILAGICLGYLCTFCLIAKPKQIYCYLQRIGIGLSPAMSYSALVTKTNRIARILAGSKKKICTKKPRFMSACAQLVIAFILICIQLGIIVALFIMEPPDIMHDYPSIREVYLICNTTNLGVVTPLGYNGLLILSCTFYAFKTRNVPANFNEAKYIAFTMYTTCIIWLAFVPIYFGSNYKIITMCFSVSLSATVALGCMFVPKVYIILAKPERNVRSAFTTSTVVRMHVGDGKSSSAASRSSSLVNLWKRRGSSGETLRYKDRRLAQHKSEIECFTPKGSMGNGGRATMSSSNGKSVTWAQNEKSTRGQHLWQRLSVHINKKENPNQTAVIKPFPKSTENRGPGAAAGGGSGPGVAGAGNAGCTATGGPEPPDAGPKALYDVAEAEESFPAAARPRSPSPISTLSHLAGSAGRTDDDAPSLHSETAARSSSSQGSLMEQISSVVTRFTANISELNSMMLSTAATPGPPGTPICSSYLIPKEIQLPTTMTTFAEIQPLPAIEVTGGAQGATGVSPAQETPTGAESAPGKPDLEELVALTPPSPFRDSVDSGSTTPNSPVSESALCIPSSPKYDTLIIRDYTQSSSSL

As to `N#Cc1cc(Cl)cc(-c2cc(-c3ccccn3)ncn2)c1` [Example 2, 3-chloro-5-[6-(pyridin-2-yl)pyrimidin-4-yl]benzonitrile], the ED50 (in general, the midpoint of the dose-response relation) in assay [1] was 2.8 mg/kg. In turn, `Cc1cc(C#N)cc(-c2cc(-c3ccccn3)ncn2)c1` [Example 4, 3-methyl-5-[6-(pyridin-2-yl)pyrimidin-4-yl]benzonitrile] came in with a pKi avg on human mGlu5 receptor of 8.56. `N#Cc1cc(Cl)cc(-c2cc(-c3ccncn3)ncn2)c1` [Example 6, 3-(4,4′-bipyrimidin-6-yl)-5-chlorobenzonitrile] returned a pKi avg at human mGlu5 receptor of 8.27. Still for that read-out and setting: the result for `N#Cc1cc(Cl)c(F)c(-c2cc(-n3cccn3)ccn2)c1` [Example 10, 3-chloro-4-fluoro-5-[4-(1H-pyrazol-1-yl)pyridin-2-yl]benzonitrile] reads 8.37. The same measure, in the same setting: the result for `N#Cc1cc(Cl)c(F)c(-c2ccnc(-n3cccn3)c2)c1` [Example 11, 3-chloro-4-fluoro-5-[2-(1H-pyrazol-1-yl)pyridin-4-yl]benzonitrile] reads 8.16; that for `N#Cc1cc(Cl)c(F)c(-c2cc(-n3cc(F)cn3)ncn2)c1` [Example 12, 3-chloro-4-fluoro-5-[6-(4-fluoro-1H-pyrazol-1-yl)pyrimidin-4-yl]benzonitrile], 8.00; that for `N#Cc1cc(CF)cc(-c2cc(-n3cccn3)ncn2)c1` [Example 16, 3-(fluoromethyl)-5-[6-(1H-pyrazol-1-yl)pyrimidin-4-yl]benzonitrile], 8.17. With `N#Cc1cc(Cl)cc(-c2cc(-c3ccc(F)cn3)ncn2)c1` [Example 17, 3-chloro-5-[6-(5-fluoropyridin-2-yl)pyrimidin-4-yl]benzonitrile], the “number of marbles buried” value in the assay on Male CD-1 mice is “statistically significant decrease”. Also, in assay [1], the ED50 was 0.3 mg/kg. Consider `N#Cc1cc(C#N)cc(-c2cc(-c3ccc(F)cn3)ncn2)c1` [Example 18, 5-[6-(5-fluoropyridin-2-yl)pyrimidin-4-yl]benzene-1,3-dicarbonitrile], for which the ED50 in assay [1] is 2.9 mg/kg.

For `N#Cc1cc(C#N)cc(-c2cc(-c3ccccn3)ncn2)c1` [Example 21, 5-[6-(pyridin-2-yl)pyrimidin-4-yl]benzene-1,3-dicarbonitrile], on human mGlu5 receptor, the pKi avg came out at 7.98. Still for that read-out and setting: the value for `Cc1ccc(-c2cc(-c3cc(C)cc(C#N)c3)ncn2)nc1` [Example 23, 3-methyl-5-[6-(5-methylpyridin-2-yl)pyrimidin-4-yl]benzonitrile] was 8.67; that for `COCc1cc(C#N)cc(-c2cc(-c3ccc(F)cn3)ncn2)c1` [Example 24, 3-[6-(5-fluoropyridin-2-yl)pyrimidin-4-yl]-5-(methoxymethyl)benzonitrile] was 8.57. The same measure, in the same setting: the value for `COc1cc(C#N)cc(-c2cc(-c3ccc(F)cn3)ncn2)c1` [Example 25, 3-[6-(5-fluoropyridin-2-yl)pyrimidin-4-yl]-5-methoxybenzonitrile] was 8.37.

(Values after US10246432B2, “4-(3-cyanophenyl)-6-pyridinylpyrimidine mGlu5 modulators” (Heptares Therapeutics Limited, priority 2013, dated 2019).)
